Data on 19 molecules can be found in the supplement of paper PMC8967900.
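Further: ALL cell lines in 384-well plates, five doses spanning 10,000-fold, each plate scaled between vehicle and 100 µmol/L benzalkonium chloride controls, sDSS an adapted area-under-curve metric.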

One assay has as its system KASUMI-9. The assay can be described thus: selective drug sensitivity score (sDSS, relative to normal bone marrow) (sDSS (score)); higher = more potent and effective on the cell line relative to normal bone marrow cells. The conditions noted are these: 72 h.
As for `O=C1c2c(O)ccc(O)c2C(=O)c2c(NCCNCCO)ccc(NCCNCCO)c21` [Mitoxantrone] (top concentration 1000 nM), the “selective drug sensitivity score” value came out at 11.8.
The same measure, in the same setting: in the case of `Nc1ncnc2c1c(COc1cccc(Cl)c1)nn2C1CCOCC1` (top concentration 10000 nM) it was 1.06; in that of `CC1(C)CNc2cc(NC(=O)c3cccnc3NCc3ccncc3)ccc21` [Motesanib] (top concentration 10000 nM), -0.22; in that of `NC(=O)c1cccc(-c2cccc(OC(=O)NC3CCCCC3)c2)c1` [URB597] (top concentration 1000 nM), 0.04.
On the same count and under the same terms, next, `CCCN(CCC)C(=O)C1=Cc2ccc(-c3ccc(C(=O)N4CCCC4)cc3)cc2N=C(N)C1` [Motolimod] (top concentration 10000 nM): 1.22; `CCCOc1ccn2c(C(C)=O)cc(-c3ccccc3S(C)(=O)=O)c2c1` [GSK2801] (top concentration 10000 nM): -0.36.
Take `Nc1cc(COc2c(Cl)cc(C[C@H](N)C(=O)O)cc2Cl)c2oc(-c3ccccc3)nc2c1` [JPH203] (top concentration 5000 nM): the “selective drug sensitivity score” value was determined as 2.2.
Still for that read-out and setting: in the case of `CC/C(=C(\c1ccccc1)c1ccc(OCCN(C)C)cc1)c1ccccc1` [Tamoxifen] (top concentration 10000 nM) it was 1.52; in that of `NC(=S)N/N=C/c1ncccc1N` [Triapine] (top concentration 10000 nM), 3.98.
Still for that read-out and setting: next, `C=CCN(/C=C1/C(=O)O[C@H](COC)[C@@]2(C)C1=C(O)C(=O)C1=C2[C@H](OC(C)=O)C[C@]2(C)C(=O)CC[C@@H]12)CC=C` [Sonolisib] (top concentration 10000 nM): 0.14; `C[C@H]1CNCCCN1S(=O)(=O)c1cccc2cncc(F)c12` [Ripasudil] (top concentration 10000 nM): -0.22; `C[C@@H](Oc1cc(-c2cnn(C3CCNCC3)c2)cnc1N)c1c(Cl)ccc(F)c1Cl` [Crizotinib] (top concentration 1000 nM): -0.54.
Still for that read-out and setting: in the case of `CCN(CC)CCCC(C)Nc1ccnc2cc(Cl)ccc12` (configuration not stated) [Chloroquine] (top concentration 100000 nM) it was -1.94; in that of `N#CC(c1ccnc(OCc2ccc(CN3CCOCC3)cc2)n1)c1nc2ccccc2s1` (configuration not stated) [Bentamapimod] (top concentration 10000 nM), 6.24; in that of `COc1cc(N2CCC(N3CCN(C)CC3)CC2)ccc1Nc1ncnc(Nc2ccccc2S(=O)(=O)C(C)C)n1` [ASP3026] (top concentration 10000 nM), -0.84.
Take `COCCOc1cnc2ccn([C@H](C)c3nnc4c(F)cc(-c5cnn(C)c5)cn34)c(=O)c2c1` [AMG-337] (top concentration 10000 nM): the “selective drug sensitivity score” value was 0.14.
On the same count and under the same terms, in the case of `Cc1cnc(NC(=O)Nc2cc(Br)c(C)cc2OC[C@@H]2CNCCO2)cn1` [Rabusertib] (top concentration 1000 nM) it was -0.04; in that of `CNC(=O)c1ccc(-c2cnc3ncc(Cc4ccc5ncccc5c4)n3n2)cc1F` [Capmatinib] (top concentration 1000 nM), -0.06; in that of `COc1cc2/c(=N/c3ccc(Br)cc3F)nc[nH]c2cc1OCC1CCN(C)CC1` [Vandetanib] (top concentration 1000 nM), -0.22.

In another assay the test system is NALM-6. Described as above. The conditions noted are these: 72 h.
For the molecule `O=C1c2c(O)ccc(O)c2C(=O)c2c(NCCNCCO)ccc(NCCNCCO)c21` [Mitoxantrone] (top concentration 1000 nM), the “selective drug sensitivity score” value amounted to 2.44.
The same measure, in the same setting: in the case of `Nc1ncnc2c1c(COc1cccc(Cl)c1)nn2C1CCOCC1` (top concentration 10000 nM) it was -0.54; in that of `CC1(C)CNc2cc(NC(=O)c3cccnc3NCc3ccncc3)ccc21` [Motesanib] (top concentration 10000 nM), 1.28; in that of `NC(=O)c1cccc(-c2cccc(OC(=O)NC3CCCCC3)c2)c1` [URB597] (top concentration 1000 nM), 2.44.
Still for that read-out and setting: next, `CCCN(CCC)C(=O)C1=Cc2ccc(-c3ccc(C(=O)N4CCCC4)cc3)cc2N=C(N)C1` [Motolimod] (top concentration 10000 nM): -3.38; `CCCOc1ccn2c(C(C)=O)cc(-c3ccccc3S(C)(=O)=O)c2c1` [GSK2801] (top concentration 10000 nM): -0.36.
Still for that read-out and setting: in the case of `Nc1cc(COc2c(Cl)cc(C[C@H](N)C(=O)O)cc2Cl)c2oc(-c3ccccc3)nc2c1` [JPH203] (top concentration 5000 nM) it was 0; in that of `CC/C(=C(\c1ccccc1)c1ccc(OCCN(C)C)cc1)c1ccccc1` [Tamoxifen] (top concentration 10000 nM), 0.42.
With `NC(=S)N/N=C/c1ncccc1N` [Triapine] (top concentration 10000 nM), the “selective drug sensitivity score” value worked out at 4.48.
The same measure, in the same setting: next, `C=CCN(/C=C1/C(=O)O[C@H](COC)[C@@]2(C)C1=C(O)C(=O)C1=C2[C@H](OC(C)=O)C[C@]2(C)C(=O)CC[C@@H]12)CC=C` [Sonolisib] (top concentration 10000 nM): -0.56; `C[C@H]1CNCCCN1S(=O)(=O)c1cccc2cncc(F)c12` [Ripasudil] (top concentration 10000 nM): -0.22.
On the same count and under the same terms, in the case of `C[C@@H](Oc1cc(-c2cnn(C3CCNCC3)c2)cnc1N)c1c(Cl)ccc(F)c1Cl` [Crizotinib] (top concentration 1000 nM) it was 0.96; in that of `CCN(CC)CCCC(C)Nc1ccnc2cc(Cl)ccc12` (configuration not stated) [Chloroquine] (top concentration 100000 nM), -2.74.
The same measure, in the same setting: next, `N#CC(c1ccnc(OCc2ccc(CN3CCOCC3)cc2)n1)c1nc2ccccc2s1` (configuration not stated) [Bentamapimod] (top concentration 10000 nM): 2.44; `COc1cc(N2CCC(N3CCN(C)CC3)CC2)ccc1Nc1ncnc(Nc2ccccc2S(=O)(=O)C(C)C)n1` [ASP3026] (top concentration 10000 nM): 1.86.
Regarding `COCCOc1cnc2ccn([C@H](C)c3nnc4c(F)cc(-c5cnn(C)c5)cn34)c(=O)c2c1` [AMG-337] (top concentration 10000 nM), the “selective drug sensitivity score” value is -0.06.
Same read-out and setting: next, `Cc1cnc(NC(=O)Nc2cc(Br)c(C)cc2OC[C@@H]2CNCCO2)cn1` [Rabusertib] (top concentration 1000 nM): 1.16; `CNC(=O)c1ccc(-c2cnc3ncc(Cc4ccc5ncccc5c4)n3n2)cc1F` [Capmatinib] (top concentration 1000 nM): 0.24.
Still for that read-out and setting: in the case of `COc1cc2/c(=N/c3ccc(Br)cc3F)nc[nH]c2cc1OCC1CCN(C)CC1` [Vandetanib] (top concentration 1000 nM) it was -0.22.

The test system of a further assay is DND-41. The description is as above. The settings on record: 72 h.
Take `O=C1c2c(O)ccc(O)c2C(=O)c2c(NCCNCCO)ccc(NCCNCCO)c21` [Mitoxantrone] (top concentration 1000 nM): the “selective drug sensitivity score” value stood at 2.84.
With `Nc1ncnc2c1c(COc1cccc(Cl)c1)nn2C1CCOCC1` (top concentration 10000 nM), the “selective drug sensitivity score” value is -0.64.
As to `CC1(C)CNc2cc(NC(=O)c3cccnc3NCc3ccncc3)ccc21` [Motesanib] (top concentration 10000 nM), the “selective drug sensitivity score” value is -0.22.
Still for that read-out and setting: in the case of `NC(=O)c1cccc(-c2cccc(OC(=O)NC3CCCCC3)c2)c1` [URB597] (top concentration 1000 nM) it was -0.26.
Still for that read-out and setting: next, `CCCN(CCC)C(=O)C1=Cc2ccc(-c3ccc(C(=O)N4CCCC4)cc3)cc2N=C(N)C1` [Motolimod] (top concentration 10000 nM): -4.08; `CCCOc1ccn2c(C(C)=O)cc(-c3ccccc3S(C)(=O)=O)c2c1` [GSK2801] (top concentration 10000 nM): -0.26.
Still for that read-out and setting: in the case of `Nc1cc(COc2c(Cl)cc(C[C@H](N)C(=O)O)cc2Cl)c2oc(-c3ccccc3)nc2c1` [JPH203] (top concentration 5000 nM) it was 0.
In the case of `CC/C(=C(\c1ccccc1)c1ccc(OCCN(C)C)cc1)c1ccccc1` [Tamoxifen] (top concentration 10000 nM), the “selective drug sensitivity score” value is 3.72.
On the same count and under the same terms, in the case of `NC(=S)N/N=C/c1ncccc1N` [Triapine] (top concentration 10000 nM) it was 7.38.
